# US7700277B2, “Use of polymorphisms in human OATP-C associated with an effect on statin pharmacokinetics in humans in statin therapy” (AstraZeneca AB, priority 2003, dated 2010)
# Numbering of substitutions follows the chain as printed.
# What was measured:
# [1] = biological target: T1, OATP-C (Homo sapiens, UniProt Q9Y6L6, N130D/V174A); settings: Japanese healthy volunteers; Nishizato 2003; cited from earlier work
# T1 construct: host or cells: human volunteers (in vivo)
# T1 sequence (Q9Y6L6 1-691 N130D/V174A): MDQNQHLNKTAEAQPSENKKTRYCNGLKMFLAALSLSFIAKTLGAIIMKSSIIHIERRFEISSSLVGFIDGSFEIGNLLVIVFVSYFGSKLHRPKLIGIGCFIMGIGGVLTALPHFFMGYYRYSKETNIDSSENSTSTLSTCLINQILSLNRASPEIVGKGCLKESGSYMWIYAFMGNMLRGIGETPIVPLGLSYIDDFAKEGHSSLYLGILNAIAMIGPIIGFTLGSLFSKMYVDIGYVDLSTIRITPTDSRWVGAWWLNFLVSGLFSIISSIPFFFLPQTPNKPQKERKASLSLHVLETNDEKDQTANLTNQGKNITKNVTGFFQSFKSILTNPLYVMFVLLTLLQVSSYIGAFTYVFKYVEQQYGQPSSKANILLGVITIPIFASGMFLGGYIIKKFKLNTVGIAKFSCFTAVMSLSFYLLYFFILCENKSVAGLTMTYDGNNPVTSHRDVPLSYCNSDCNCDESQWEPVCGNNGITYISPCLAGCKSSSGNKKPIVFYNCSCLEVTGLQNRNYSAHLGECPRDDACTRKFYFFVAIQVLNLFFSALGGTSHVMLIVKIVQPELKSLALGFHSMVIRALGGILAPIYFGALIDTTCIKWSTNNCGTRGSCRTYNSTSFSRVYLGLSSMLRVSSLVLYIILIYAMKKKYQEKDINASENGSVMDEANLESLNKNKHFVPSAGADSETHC
# [2] = tested on: OATP-C; settings: cohort of healthy volunteers; Niemi 2004; cited from earlier work
# [3] = biological target: T2, OATP-C (Homo sapiens, UniProt Q9Y6L6); settings: literature reports (Brown 2001, in vitro; Hsiang 1999); cited from earlier work
# T2 sequence (Q9Y6L6 1-691): T1 sequence (Q9Y6L6 1-691 N130D/V174A) with D130N, A174V
# [4] = tested on: OATP-C; test: Dose-normalised plasma rosuvastatin concentrations by OATP-C genotype/haplotype in patients treated for 6 weeks; type: in vivo, human
# Text: In brief, the OATP-C gene was sequenced in 79 human clinical trial subjects. 52 of these patients had received rosuvastatin for at least 6 weeks for dislipidaemic disease and had plasma PK measurements taken after 6 weeks of treatment.
# The promoter, exons and 3′ untranslated regions of OATP-C were fully sequenced by DNA terminator sequencing in DNA collected from 79 subjects in clinical trials. Sequencing traces were used to record the genotypes for known (i.e. available in the literature or SNP databases) SNPs in OATP-C. Some novel SNPs were found in the promoter and 3′UTR region of OATP-C.
# Mean dose-normalised plasma rosuvastatin concentrations were determined for the genotypes for each polymorphic variant in the OATP-C gene. OATP-C genotype data for 3 SNPs, namely amino acid position 130 Asparagine→Aspartic acid (Asn130Asp), 155 Proline→Threonine (Pro 155Thr) and 174 Valine→Alanine (Val174Ala), was utilised to determine the haplotype pair for each subject. Mean dose-normalised plasma rosuvastatin concentrations were determined for the subjects grouped by haplotype pair.
# All consenting subjects treated with rosuvastatin (n=271), from the 2 clinical trials including the original 52 patients, were subsequently genotyped, using TaqMan™, for OATP-C variants. Data for SNPs causing the N130D, P155T and V174A variants were utilised to assign OATPC haplotype pairs to each subject, as previously described.
"dose-normalised plasma rosuvastatin values, 174Ala variant vs wild type ([4]; FIG. 1, 52 subjects, Val174Ala heterozygote vs wild-type homozygote, after 6 weeks of treatment)","dose-normalised plasma rosuvastatin values, OATP-C*15 haplotype vs other haplotypes ([4]; FIG. 2, haplotype pairs, after 6 weeks of treatment)","mean plasma rosuvastatin levels (dose normalised), Val174Ala heterozygous vs Val/Val ([4]; FIG. 3, patients treated 6 weeks with different doses, most evident at higher doses)","mean plasma rosuvastatin concentrations, az0005537 (-118A>C) A/C heterozygous vs A/A ([4]; FIG. 4, two independent phase III studies)","effect of OATP-C variants N130D and P155T on pharmacokinetic disposition ([4]; patients, dose-normalised plasma levels)",Compound,effect of OATPC*15 allele (N130D and V174A) on pharmacokinetics [1],correlation between PK and a haplotype containing a promoter SNP [2],substrate / transport by OATP-C [3],"mean plasma rosuvastatin concentrations, 174A variant with az0005537 C allele vs az0005537 A allele ([4]; FIG. 5, combined 2 phase III studies, V174A heterozygotes stratified by promoter genotype)"
,,,,,CC[C@H](C)C(=O)O[C@H]1C[C@H](O)C=C2C=C[C@H](C)[C@H](CC[C@@H](O)C[C@@H](O)CC(=O)O)[C@H]21 [pravastatin],had an effect,significant correlation,actively transported,
higher plasma concentrations,higher plasma concentrations,higher,trend for an increase,do not appear to affect,CC(C)c1nc(N(C)S(C)(=O)=O)nc(-c2ccc(F)cc2)c1/C=C/[C@@H](O)C[C@@H](O)CC(=O)O [rosuvastatin],,,substrate for OATP-C,tendency for higher mean plasma rosuvastatin concentrations
